In the assay the target is T1, VEGFR/KDR (Homo sapiens, UniProt P35968).
T1 construct: made in house; host or cells: Sf9 cells (Spodoptera frugiperda), baculovirus
T1 sequence (P35968 806-1356): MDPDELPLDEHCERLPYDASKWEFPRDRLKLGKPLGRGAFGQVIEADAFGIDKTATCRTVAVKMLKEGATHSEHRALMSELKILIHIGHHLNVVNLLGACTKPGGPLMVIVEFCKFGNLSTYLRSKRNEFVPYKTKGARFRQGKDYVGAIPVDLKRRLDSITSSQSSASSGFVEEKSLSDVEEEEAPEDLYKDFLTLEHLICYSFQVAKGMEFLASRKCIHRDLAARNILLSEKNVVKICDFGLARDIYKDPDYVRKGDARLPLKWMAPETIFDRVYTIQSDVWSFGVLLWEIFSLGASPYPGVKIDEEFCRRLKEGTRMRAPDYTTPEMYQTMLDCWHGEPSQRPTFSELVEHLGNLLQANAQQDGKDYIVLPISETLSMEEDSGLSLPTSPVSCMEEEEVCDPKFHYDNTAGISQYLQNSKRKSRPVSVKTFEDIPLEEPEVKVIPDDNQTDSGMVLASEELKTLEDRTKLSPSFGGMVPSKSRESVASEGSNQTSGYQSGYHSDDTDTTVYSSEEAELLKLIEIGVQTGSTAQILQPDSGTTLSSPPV
The experiment in a line: VEGFR/KDR kinase inhibition, DELFIA assay. In kind it is biochemical. As to conditions: ATP 0.6 uM (2x Km), enzyme 5 nM. The method, boiled down:
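DELFIA time-resolved fluorescence readout using Europium-tagged anti-phosphotyrosine antibody after EDTA stop. Kinase reaction on plate-bound poly(Glu4,Tyr) ran 10-30 min at 30° C with 5 nM enzyme and 0.6 uM ATP (2× Km), following 4 min on-ice pre-incubation with compound; IC50 over a concentration range.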
A word on the IC50: it is the concentration at which inhibition is half-maximal. The low end stands for greater potency, the high end for weaker potency. `COCCNCc1ccc(-c2cc3nccc(Oc4ccc(NC(CC(=O)Nc5ccccc5)C(F)(F)F)cc4F)c3s2)nc1` (stereo not shown) [Compound 19, 4,4,4-trifluoro-3-(3-fluoro-4-(2-(5-((2-methoxyethylamino)methyl)pyridin-2-yl)thieno[3,2-b]pyridin-7-yloxy)phenylamino)-N-phenylbutanamide] gave an IC50 of under 50 nM. The same measure for `CC(O)CN1CCN(Cc2ccc(-c3cc4nccc(Oc5ccc(NC(=O)NC6CC6)cc5F)c4s3)nc2)CC1` (stereo not shown) [Compound 562]: under 50 nM; for `CCNC(=O)N(CCOC)Cc1cnc(-c2cc3nccc(Oc4ccc(NC(=O)NC5CC5)cc4F)c3s2)n1C` [Compound 161-B, 1-((2-(7-(4-cyclopropylaminocarbonylamino-2-fluorophenoxy)thieno[3,2-b]pyridin-2-yl)-1-methyl-1H-imidazol-5-yl)methyl)-3-ethyl-1-(2-methoxyethyl)urea]: under 50 nM. The same measure for `CCNC(=O)N(CCOC)CCn1cnc(-c2cc3nccc(Oc4ccc(NC(=O)NC5CC5)cc4F)c3s2)c1` [Compound 256, N-(2-(4-(7-(4-(3-cyclopropylureido)-2-fluorophenoxy)thieno[3,2-b]-pyridin-2-yl)-1H-imidazol-1-yl)ethyl)-N-(1-ethyl)-N-[3-(2-methoxyethyl)]urea]: under 50 nM. As to `COCCN(Cc1ccc(-c2cc3nccc(Oc4ccc(NC(=O)NC5CC5)cc4F)c3s2)nc1)C(=O)[C@@H](NC(=O)CN)C(C)C` [Compound 93, (S)-2-(2-aminoacetamido)-N-((6-(7-(4-(3-cyclopropylureido)-2-fluorophenoxy)-thieno[3,2-b]pyridin-2-yl)pyridin-3-yl)methyl)-N-(2-methoxyethyl)-3-methylbutanamide], the half-maximal inhibitory concentration (IC50) is under 50 nM. The same measure for `CN(CCO)C(=O)NC1CCN(Cc2ccc(-c3cc4nccc(Oc5ccc(NC(=O)NC6CC6)cc5F)c4s3)nc2)CC1` [Compound 358, 1-Cyclopropyl-3-(3-fluoro-4-(2-(5-((4-((2-hydroxyethyl-methylamino)carbonylamino)piperidin-1-yl)methyl)pyridin-2-yl)thieno[3,2-b]pyridin-7-yloxy)phenyl)urea]: under 50 nM. In the case of `CC(C)NC(=O)Nc1ccc(Oc2ccnc3cc(-c4ncc(C(=O)NCCN5CCOCC5)n4C)sc23)c(F)c1` [Compound 218, 2-(7-(2-fluoro-4-(3-isopropylureido)phenoxy)thieno[3,2-b]pyridin-2-yl)-1-methyl-N-(2-morpholinoethyl)-1H-imidazole-5-carboxamide], the IC50 was under 50 nM. The same measure for `CN(C)CC(=O)N1CCN(Cc2ccc(-c3cc4nccc(Oc5ccc(NC(=O)NC6CC6)cc5F)c4s3)nc2)CC1` [Compound 538]: under 50 nM; for `COCCN(Cc1ccc(-c2cc3nccc(Oc4ccc(NC(=S)NC5CC5)cc4F)c3s2)nc1)C(=O)CO` [Compound 505, N-((6-(7-(4-(3-cyclopropylthioureido)-2-fluorophenoxy)thieno[3,2-b]pyridin-2-yl)pyridin-3-yl)methyl)-2-hydroxy-N-(2-methoxyethyl)acetamide]: 50 to 100 nM; for `CN(C(=O)OC(C)(C)C)C1CCN(C(=O)c2ccc(-c3cc4nccc(Oc5ccc(NC(=O)NC6CC6)cc5F)c4s3)nc2)CC1` [Compound 397]: under 50 nM. As for `CN(CC(=O)O)C1CCN(Cc2ccc(-c3cc4nccc(Oc5ccc(NC(=O)NC6CC6)cc5F)c4s3)nc2)CC1` [Compound 423, 2-((1-((6-(7-(4-(3-Cyclopropylureido)-2-fluorophenoxy)thieno[3,2-b]pyridin-2-yl)pyridin-3-yl)methyl)piperidin-4-yl)(methyl)amino)acetic acid], the IC50 was under 50 nM. The molecule `COCCOCCOCCOCCN(C)C1CCN(Cc2ccc(-c3cc4nccc(Oc5ccc(NC(=O)NC6CC6)cc5F)c4s3)nc2)CC1` [Compound 418] yielded an IC50 of under 50 nM. The same measure for `CC(=O)OCC(=O)NC1CCN(Cc2ccc(-c3cc4nccc(Oc5ccc(NC(=O)NC6CC6)cc5F)c4s3)nc2)CC1` [Compound 345]: under 50 nM; for `O=C(Nc1ccc(Oc2ccnc3cc(C#CCN4CCOCC4)sc23)c(F)c1)Nc1ccc(F)cc1F` [Compound 119, 1-(2,4-difluorophenyl)-3-(3-fluoro-4-(2-(3-morpholinoprop-1-ynyl)thieno[3,2-b]pyridin-7-yloxy)phenyl)urea]: 100 to 250 nM; for `O=C(Nc1ccc(Oc2ccnc3cc(-c4ccc(CN5CCN(CCc6nnn[nH]6)CC5)cn4)sc23)c(F)c1)NC1CC1` [Compound 512, 1-(4-(2-(5-((4-(2-(1H-tetrazol-5-yl)ethyl)piperazin-1-yl)methyl)pyridin-2-yl)thieno[3,2-b]pyridin-7-yloxy)-3-fluorophenyl)-3-cyclopropylurea]: under 50 nM. The same measure for `COCCN(Cc1ccc(-c2cc3nccc(Oc4ccc(NC(=O)NC5CC5)cc4F)c3s2)nc1)CC(F)(F)F` [Compound 8, 1-cyclopropyl-3-(3-fluoro-4-(2-(5-(((2-methoxyethyl)(2,2,2-trifluoroethyl)amino)-methyl)pyridin-2-yl)thieno [3,2-b]pyridin-7-yloxy)phenyl)urea]: 50 to 100 nM; for `COCCN(Cc1cnc(-c2cc3nccc(Oc4ccc(NC(=O)NC(C)C)cc4F)c3s2)n1C)C(C)=O` [Compound 117-A, N-((2-(7-(2-fluoro-4-(3-isopropylureido)phenoxy)thieno[3,2-b]-pyridin-2-yl)-1-methyl-1H-imidazol-5-yl)methyl)-N-(2-methoxyethyl)acetamide]: 50 to 100 nM; for `COCCN(CCn1cnc(-c2cc3nccc(Oc4ccc(NC(=O)NC5CC5)cc4F)c3s2)c1)C(C)=O` [Compound 254-A, N-(2-(4-(7-(4-(3-cyclopropylureido)-2-fluorophenoxy)-thieno[3,2-b]pyridin-2-yl)-1H-imidazol-1-yl)ethyl)-N-(2-methoxyethyl)acetamide]: under 50 nM. The same measure for `O=C(Nc1ccc(Oc2ccnc3cc(-c4ccc(C(=O)N5CCN(CCO)CC5)cn4)sc23)c(F)c1)NC1CC1` [Compound 581, 1-cyclopropyl-3-(3-fluoro-4-(2-(5-(4-(2-hydroxyethyl)piperazine-1-carbonyl)pyridin-2-yl)thieno[3,2-b]pyridin-7-yloxy)phenyl)urea]: under 50 nM. In the case of `O=C(Nc1ccc(Oc2ccnc3cc(-c4ccc(CN5CCC(C(=O)NCCO)CC5)cn4)sc23)c(F)c1)NC1CC1` [Compound 483, 1-((6-(7-(4-(3-cyclopropylureido)-2-fluorophenoxy)thieno[3,2-b]pyridin-2-yl)pyridin-3-yl)methyl)-N-(2-hydroxyethyl)piperidine-4-carboxamide], the IC50 was under 50 nM. The molecule `O=C(CCc1cccnc1)NC1CCN(Cc2ccc(-c3cc4nccc(Oc5ccc(NC(=O)NC6CC6)cc5F)c4s3)nc2)CC1` [Compound 348] returned an IC50 of under 50 nM. In the case of `COCCN(Cc1cnc(-c2cc3nccc(Oc4ccc(NC(=O)Nc5ccc(F)cc5F)cc4F)c3s2)n1C)C(C)=O` [Compound 117, N-((2-(7-(4-(3-(2,4-difluorophenyl)ureido)-2-fluorophenoxy)thieno[3,2-b]pyridin-2-yl)-1-methyl-1H-imidazol-5-yl)methyl)-N-(2-methoxyethyl)acetamide], the IC50 is under 50 nM. On to `CN(C)CCNC(=O)C1CCN(C(=O)c2cc3nccc(Oc4ccc(NC(=O)NC5CC5)cc4F)c3s2)CC1` [Compound 471, 1-(7-(4-(3-cyclopropylureido)-2-fluorophenoxy)thieno[3,2-b]pyridine-2-carbonyl)-N-(2-(dimethylamino)ethyl)piperidine-4-carboxamide], for which the IC50 lay in the range of 50 to 100 nM.

With `COC(=O)CCN1CCN(C(=O)c2ccc(-c3cc4nccc(Oc5ccc(NC(=O)NC6CC6)cc5F)c4s3)nc2)CC1` [Compound 580], the IC50 was under 50 nM. The same measure for `O=C(Nc1ccc(Oc2ccnc3cc(-c4ccc(CN5C(=O)CCC5=O)cn4)sc23)c(F)c1)NC1CC1` [Compound 140, 1-cyclopropyl-3-(4-(2-(5-((2,5-dioxopyrrolidin-1-yl)methyl)pyridin-2-yl)thieno[3,2-b]pyridin-7-yloxy)-3-fluorophenyl)urea]: under 50 nM; for `CS(=O)(=O)N1CCN(Cc2ccc(-c3cc4nccc(Oc5ccc(NC(=O)NC6CC6)cc5F)c4s3)nc2)CC1` [Compound 54-F, 1-cyclopropyl-3-(3-fluoro-4-(2-(5-((4-(methylsulfonyl)piperazin-l-yl)methyl)pyridin-2-yl)thieno[3,2-b]pyridin-7-yloxy)phenyl)urea]: under 50 nM. In turn, `COCCOCCOCCOCCNC(=O)c1ccc(-c2cc3nccc(Oc4ccc(NC(=O)NC5CC5)cc4F)c3s2)nc1` [Compound 229, 6-(7-(4-(3-cyclopropylureido)-2-fluorophenoxy)thieno[3,2-b]pyridin-2-yl)-N-(2,5,8,11-tetraoxatridecan-13-yl)nicotinamide] had an IC50 of under 50 nM. The same measure for `COCCNCCn1cc(-c2cc3nccc(Oc4ccc(NC(=O)NC5CC5)cc4F)c3s2)cn1` [Compound 247, 1-cyclopropyl-3-(3-fluoro-4-(2-(1-(2-(2-methoxyethylamino)ethyl)-1H-pyrazol-4-yl)thieno[3,2-b]pyridin-7-yloxy)phenyl)urea]: under 50 nM. In turn, `O=C(Nc1ccc(Oc2ccnc3cc(-c4ccc(CN5CCOCCOCCOCCOCC5)cn4)sc23)c(F)c1)NC1CC1` [Compound 533] registered a half-inhibitory concentration (IC50) of under 50 nM. The molecule `O=C(Nc1ccc(Oc2ccnc3cc(-c4ccc(CN5CCCN(C(=O)CO)CC5)cn4)sc23)c(F)c1)NC1CC1` [Compound 526, 1-cyclopropyl-3-(3-fluoro-4-(2-(5-((4-(2-hydroxyacetyl)-1,4-diazepan-1-yl)methyl)pyridin-2-yl)thieno[3,2-b]-pyridin-7-yloxy)phenyl)urea] came in with an IC50 of under 50 nM. For the molecule `COCCN(CCn1cc(-c2cc3nccc(Oc4ccc(NC(=O)NC5CC5)cc4F)c3s2)cn1)C(C)=O` [Compound 254, N-(2-(4-(7-(4-(3-cyclopropylureido)-2-fluorophenoxy)thieno[3,2-b]pyridine-2-yl)-1H-pyrazol-1-yl)ethyl)-N-(2-methoxyethyl)acetamide], the IC50 is under 50 nM.
